Measurements from the supplement of paper PMC13380429.

Experiments:
Conditions in all cases: 72 h
Caco-2 [1] = test: cell viability relative to DMSO; higher = less toxic
Calu-3 [2] = test: as above
HepG2 [3] = test: as above
U2OS [4] = test: as above
Vero E6 [5] = test: as above
Caco-2 [6] = test: relative viability EC50 (midpoint between 100% and the lowest measured viability); higher = less toxic
Calu-3 [7] = test: as above
HepG2 [8] = test: as above
U2OS [9] = test: as above
Vero E6 [10] = test: as above
Caco-2 [11] = test: drug sensitivity score (DSS) for viability; higher = more toxic; extreme values may be limits of the assay
Calu-3 [12] = test: as above
HepG2 [13] = test: as above
U2OS [14] = test: as above
Vero E6 [15] = test: as above

SMILES | cell viability (Caco-2 [1]; 1 nM) [%] | cell viability (Caco-2 [1]; 10 nM) [%] | cell viability (Caco-2 [1]; 100 nM) [%] | cell viability (Caco-2 [1]; 1000 nM) [%] | cell viability (Caco-2 [1]; 10000 nM) [%] | cell viability (Calu-3 [2]; 1 nM) [%] | cell viability (Calu-3 [2]; 10 nM) [%] | cell viability (Calu-3 [2]; 100 nM) [%] | cell viability (Calu-3 [2]; 1000 nM) [%] | cell viability (Calu-3 [2]; 10000 nM) [%] | cell viability (HepG2 [3]; 1 nM) [%] | cell viability (HepG2 [3]; 10 nM) [%] | cell viability (HepG2 [3]; 100 nM) [%] | cell viability (HepG2 [3]; 1000 nM) [%] | cell viability (HepG2 [3]; 10000 nM) [%] | cell viability (U2OS [4]; 1 nM) [%] | cell viability (U2OS [4]; 10 nM) [%] | cell viability (U2OS [4]; 100 nM) [%] | cell viability (U2OS [4]; 1000 nM) [%] | cell viability (U2OS [4]; 10000 nM) [%] | cell viability (Vero E6 [5]; 1 nM) [%] | cell viability (Vero E6 [5]; 10 nM) [%] | cell viability (Vero E6 [5]; 100 nM) [%] | cell viability (Vero E6 [5]; 1000 nM) [%] | cell viability (Vero E6 [5]; 10000 nM) [%] | relative viability EC50 (Caco-2 [6]) [µM] | relative viability EC50 (Calu-3 [7]) [µM] | relative viability EC50 (HepG2 [8]) [µM] | relative viability EC50 (U2OS [9]) [µM] | relative viability EC50 (Vero E6 [10]) [µM] | drug sensitivity score (Caco-2 [11]) | drug sensitivity score (Calu-3 [12]) | drug sensitivity score (HepG2 [13]) | drug sensitivity score (U2OS [14]) | drug sensitivity score (Vero E6 [15])
CC(=O)NCC(=O)N1[C@@H]2CC[C@H]1c1ccc(Nc3ncc(C(F)(F)F)c(NC4CCC4)n3)cc12 | 95.9 | 89.2 | 101 | 79.3 | 40.7 | 101 | 97.7 | 99.4 | 121 | 83 | 93.8 | 99.6 | 84.6 | 62.4 | 3.4 | 98.6 | 97.4 | 94.4 | 67.3 | 2.9 | 92.6 | 98.6 | 96.6 | 82.1 | 46 | 1.28 | > 10 | 1.27 | 1.37 | 1.39 | 6.2 | 0.1 | 9.7 | 9.6 | 5.2
CC(C)OC(=O)c1cc2c(OC[C@@H](O)CNC(C)(C)C)cccc2[nH]1 | 92.3 | 93 | 105 | 89.5 | 103 | 114 | 102 | 91.6 | 108 | 91.3 | 98.2 | 103 | 102 | 95.7 | 90.4 | 96.1 | 99.3 | 96.1 | 98.3 | 91.9 | 101 | 102 | 99.6 | 93.4 | 94.2 | > 10 | > 10 | > 10 | > 10 | > 10 | 0 | 0 | 0 | 0 | 0
CC(C)[C@H](NS(=O)(=O)c1ccc(-c2ccc(Br)cc2)cc1)C(=O)O | 96.3 | 86.2 | 93.5 | 92.6 | 89.8 | 106 | 102 | 91.4 | 104 | 92.9 | 98.3 | 109 | 87.8 | 110 | 110 | 101 | 97.5 | 99.5 | 96.4 | 102 | 93.2 | 95.9 | 87.7 | 92.2 | 102 | > 10 | > 10 | > 10 | > 10 | > 10 | 0 | 0 | 0 | 0 | 0
CC(CNS(=O)(=O)C(C)C)c1ccc(-c2ccc(C#N)cc2)cc1 (stereo not drawn) | 98 | 106 | 97.7 | 104 | 80.8 | 93.8 | 97.6 | 102 | 108 | 90.4 | 111 | 117 | 104 | 98.9 | 30.5 | 103 | 102 | 99.2 | 101 | 85.8 | 109 | 99.9 | 106 | 97.7 | 98.6 | > 10 | > 10 | 3.06 | > 10 | > 10 | 0.4 | 0 | 4 | 0.1 | 0
C[C@H](NC(=O)CNC(=O)c1cccc(Cl)c1)c1ccccc1 | 100 | 102 | 96.6 | 100 | 102 | 91.2 | 95.1 | 96.3 | 108 | 90.8 | 102 | 107 | 98.8 | 98.6 | 101 | 101 | 96.8 | 99.7 | 98.1 | 101 | 103 | 96.2 | 96.4 | 104 | 99.1 | > 10 | > 10 | > 10 | > 10 | > 10 | 0 | 0 | 0 | 0 | 0
Cc1c[nH]c(=O)n(CCCN2CCN(c3ccccc3OCC(F)(F)F)CC2)c1=O |  |  |  |  |  | 90.5 | 99 | 99.1 | 96.6 | 87.4 | 98.7 | 96.2 | 95.9 | 98.2 | 103 | 101 | 102 | 100 | 101 | 102 | 102 | 96.2 | 99.2 | 98.7 | 105 |  | > 10 | > 10 | > 10 | > 10 |  | 0.3 | 0 | 0 | 0
